Measured values published in patent US4073903A, “3-Desacetoxymethyl-3- 5'(1-methyltetrazolyl)thio!methyl-7- 1-(4-nitr oimidazolyl)acetyl!aminocephalosporanic acid” (Pierrel S.p.A., priority 1975, dated 1978).
Converted amounts (≈) assume the structure as drawn. Like-named read-outs stand apart in the source and are kept apart here.

Columns and labels:
Staphylococcus aureus = experiment: MIC, twofold serial broth dilution (Table I); format: cell-based; conditions: 24 h, 37° C, read-out: Minimum inhibitory concentration (MIC)
Streptococcus mitis = experiment: MIC, twofold serial broth dilution (Table I); format: cell-based; conditions: ATCC9895, strain ATCC 9895 Ty V, Todd Hewitt Broth, 37° C, 24 hours, read-out: Minimum inhibitory concentration (MIC)
Streptococcus bovis = experiment: MIC, twofold serial broth dilution (Table I); format: cell-based; conditions: Streptococcus equinus, ATCC15351; strain ATCC 15351; Todd Hewitt Broth; 37° C, 24 hours; read-out: Minimum inhibitory concentration (MIC)
Streptococcus uberis = experiment: MIC, twofold serial broth dilution (Table I); format: cell-based; conditions: ATCC9927, strain ATCC 9927, Todd Hewitt Broth, 37° C, 24 hours, read-out: Minimum inhibitory concentration (MIC)
Streptococcus faecalis = experiment: MIC, twofold serial broth dilution (Table I); format: cell-based; conditions: Enterococcus faecalis; strain ISM 66/54; Tryptose Phosphate Broth; 37° C, 24 hours; read-out: Minimum inhibitory concentration (MIC)
Escherichia coli [1] = experiment: MIC, twofold serial broth dilution (Table I); format: cell-based; conditions: ATCC19138, strain ATCC 19138 0 group 6, Tryptose Phosphate Broth, 37° C, 24 hours, read-out: Minimum inhibitory concentration (MIC)
Shigella dysenteriae = experiment: MIC, twofold serial broth dilution (Table I); format: cell-based; conditions: 24 h, read-out: Minimum inhibitory concentration (MIC)
Enterobacter cloacae = experiment: MIC, twofold serial broth dilution (Table I); format: cell-based; conditions: strain ISM 71/32, Tryptose Phosphate Broth, 37° C, 24 hours, read-out: Minimum inhibitory concentration (MIC)
[2] = tested on: Enterobacter liquefaciens; experiment: MIC, twofold serial broth dilution (Table I); format: cell-based; conditions: strain ISM 65/33, Tryptose Phosphate Broth, 37° C, 24 hours, read-out: Minimum inhibitory concentration (MIC)
Salmonella typhi = experiment: MIC, twofold serial broth dilution (Table I); format: cell-based; conditions: Salmonella enterica, 24 h, read-out: Minimum inhibitory concentration (MIC)
Arizona sp. = experiment: MIC, twofold serial broth dilution (Table I); format: cell-based; conditions: strain ISM 67/9; Tryptose Phosphate Broth; 37° C, 24 hours; read-out: Minimum inhibitory concentration (MIC)
Serratia marcescens = experiment: MIC, twofold serial broth dilution (Table I); format: cell-based; conditions: strain ISM 68/189, Mueller Hinton Broth, 37° C, 24 hours, read-out: Minimum inhibitory concentration (MIC)
Citrobacter freundii = experiment: MIC, twofold serial broth dilution (Table I); format: cell-based
Klebsiella pneumoniae [3] = experiment: MIC, twofold serial broth dilution (Table I); format: cell-based; conditions: strain ISM 68/67' 370 V', Tryptose Phosphate Broth, 37° C, 24 hours, read-out: Minimum inhibitory concentration (MIC)
Proteus morganii = experiment: MIC, twofold serial broth dilution (Table I); format: cell-based; conditions: Morganella morganii; strain ISM-LRP 18; Mueller Hinton Broth; 37° C, 24 hours; read-out: Minimum inhibitory concentration (MIC)
Proteus rettgeri = experiment: MIC, twofold serial broth dilution (Table I); format: cell-based; conditions: Providencia rettgeri; strain ISM-LRP 21; Mueller Hinton Broth; 37° C, 24 hours; read-out: Minimum inhibitory concentration (MIC)
Proteus mirabilis = experiment: MIC, twofold serial broth dilution (Table I); format: cell-based; conditions: 37° C, 24 hours, read-out: Minimum inhibitory concentration (MIC)
Pasteurella multocida = experiment: MIC, twofold serial broth dilution (Table I); format: cell-based; conditions: ATCC6588, strain ATCC 6588, Tryptose Broth, 37° C, 24 hours, read-out: Minimum inhibitory concentration (MIC)
Brucella abortus = experiment: microbe, parasite or virus in culture; format: cell-based; conditions: 24 h, read-out: Minimum inhibitory concentration (MIC)
Pseudomonas aeruginosa = experiment: MIC, twofold serial broth dilution (Table I); format: cell-based; conditions: strain ISM-LRP 9, Tryptose Phosphate Broth, 37° C, 24 hours, read-out: Minimum inhibitory concentration (MIC)
[4] = tested on: wide spectrum of microorganisms both Gram-positive and Gram-negative; experiment: In vitro antimicrobial activity (overall statement); format: cell-based
[5] = tested on: systemically infected mice; experiment: In vivo activity in systemically infected mice (overall statement); design: species or system Charles River CD 1 female mice; conditions: treatment of systemically infected mice
Klebsiella pneumoniae [6] = experiment: MIC against clinical isolates, broth dilution test (Table II); conditions: for MIC: Klebsiella pneumoniae, 24 h
Escherichia coli [7] = experiment: MIC against clinical isolates, broth dilution test (Table III); conditions: for MIC: Escherichia coli, 24 h
Salmonella essen = experiment: MIC against Ampicillin-resistant clinical isolates, broth dilution test (Table IV); conditions: Salmonella enterica, 24 h, read-out: Minimun inhibitory concentration (MIC)
Salmonella wien = experiment: as above; conditions: Salmonella enterica, 24 h
[8] = read-out: Minimum inhibitory concentration (MIC)

Q: What does the source list for Cn1nnnc1SCC1=C(C(=O)O)N2C(=O)C(NC(=O)Cn3cnc([N+](=O)[O-])c3)C2SC1 (centres unmarked) [P-75123, 7-1-(1H-4-nitroimidazolyl)acetyl!amino-3-5-(1H-1-methyltetrazolyl)thio!methyl-3-cephem-4-carboxylic acid]?
A: MIC (Staphylococcus aureus; strain ATTC 653P, Tryptose Phosphate Broth): 0.195 µg/mL (≈ 0.405 µM); MIC (Staphylococcus aureus; strain ISM 72/10, Tryptose Phosphate Broth): 0.78 µg/mL (≈ 1.62 µM); MIC (Streptococcus mitis): 0.195 µg/mL (≈ 0.405 µM); MIC (Streptococcus bovis): 0.049 µg/mL (≈ 0.102 µM); MIC (Streptococcus uberis): 0.097 µg/mL (≈ 0.201 µM); MIC (Streptococcus faecalis): 100 µg/mL (≈ 208 µM); MIC (Escherichia coli [1]): 0.78 µg/mL (≈ 1.62 µM); MIC (Shigella dysenteriae): 0.78 µg/mL (≈ 1.62 µM); MIC (Enterobacter cloacae): > 100 µg/mL; MIC [2]: 100 µg/mL (≈ 208 µM); MIC (Salmonella typhi): 0.78 µg/mL (≈ 1.62 µM); MIC (Arizona sp.): 0.78 µg/mL (≈ 1.62 µM); MIC (Serratia marcescens): 100 µg/mL (≈ 208 µM); MIC (Citrobacter freundii; 24 h, read-out: Minimum inhibitory concentration (MIC), strain ISM 65/74, Tryptose Phosphate Broth, 37° C): 1.56 µg/mL (≈ 3.24 µM); MIC (Citrobacter freundii; strain ISM 69/30, Tryptose Phosphate Broth, 37° C, 24 hours, read-out: Minimum inhibitory concentration (MIC)): 0.78 µg/mL (≈ 1.62 µM); MIC (Klebsiella pneumoniae [3]): 0.78 µg/mL (≈ 1.62 µM); MIC (Proteus morganii): 50 µg/mL (≈ 104 µM); MIC (Proteus rettgeri): 25 µg/mL (≈ 51.9 µM); MIC (Proteus mirabilis; ATCC10005, strain ATCC 10005, Mueller Hinton Broth): 3.12 µg/mL (≈ 6.48 µM); MIC (Proteus mirabilis; strain ISM 66/53, Mueller Hinton Broth): 3.12 µg/mL (≈ 6.48 µM); MIC (Pasteurella multocida): 0.39 µg/mL (≈ 0.81 µM); MIC (Brucella abortus): 25 µg/mL (≈ 51.9 µM); MIC (Pseudomonas aeruginosa): > 100 µg/mL; "in vitro" antimicrobial activity [4]: high antimicrobial activity; activity "in vivo" [5]: very good activity; MIC (Klebsiella pneumoniae [6]; [8]): 1.56 µg/mL (≈ 3.24 µM); MIC (Klebsiella pneumoniae [6]; read-out: Minimum inhibitory concentration (MIC), clinical isolate LRP 129): 0.39 µg/mL (≈ 0.81 µM); MIC (Klebsiella pneumoniae [6]; read-out: Minimum inhibitory concentration (MIC), clinical isolate LRP 130): 6.25 µg/mL (≈ 13 µM); MIC (Klebsiella pneumoniae [6]; read-out: Minimum inhibitory concentration (MIC), clinical isolate LRP 131): 3.12 µg/mL (≈ 6.48 µM); MIC (Klebsiella pneumoniae [6]; read-out: Minimum inhibitory concentration (MIC), clinical isolate LRP 132): 0.39 µg/mL (≈ 0.81 µM); MIC (Klebsiella pneumoniae [6]; read-out: Minimum inhibitory concentration (MIC), clinical isolate LRP 133): 0.78 µg/mL (≈ 1.62 µM); MIC (Klebsiella pneumoniae [6]; read-out: Minimum inhibitory concentration (MIC), clinical isolate LRP 135): 3.12 µg/mL (≈ 6.48 µM); MIC (Klebsiella pneumoniae [6]; read-out: Minimum inhibitory concentration (MIC), clinical isolate LRP 136): 3.12 µg/mL (≈ 6.48 µM); MIC (Klebsiella pneumoniae [6]; read-out: Minimum inhibitory concentration (MIC), clinical isolate LRP 137): 0.78 µg/mL (≈ 1.62 µM); Minimum inhibitory concentration (MIC) (Klebsiella pneumoniae [6]; clinical isolate LRP 134): 1.56 µg/mL (≈ 3.24 µM); MIC (Escherichia coli [7]; [8]): 1.56 µg/mL (≈ 3.24 µM); MIC (Escherichia coli [7]; read-out: Minimum inhibitory concentration (MIC), clinical isolate LRP 87): 3.12 µg/mL (≈ 6.48 µM); MIC (Escherichia coli [7]; read-out: Minimum inhibitory concentration (MIC), clinical isolate LRP 110): 0.78 µg/mL (≈ 1.62 µM); MIC (Escherichia coli [7]; read-out: Minimum inhibitory concentration (MIC), clinical isolate LRP 143): 0.78 µg/mL (≈ 1.62 µM); MIC (Escherichia coli [7]; read-out: Minimum inhibitory concentration (MIC), clinical isolate LRP 152): 50 µg/mL (≈ 104 µM); MIC (Escherichia coli [7]; read-out: Minimum inhibitory concentration (MIC), clinical isolate LRP 159): 0.78 µg/mL (≈ 1.62 µM); Minimum inhibitory concentration (MIC) (Escherichia coli [7]; clinical isolate LRP 96): 1.56 µg/mL (≈ 3.24 µM); Minimum inhibitory concentration (MIC) (Escherichia coli [7]; clinical isolate LRP 150): 1.56 µg/mL (≈ 3.24 µM); Minimum inhibitory concentration (MIC) (Escherichia coli [7]; clinical isolate LRP 151): 1.56 µg/mL (≈ 3.24 µM); Minimum inhibitory concentration (MIC) (Escherichia coli [7]; clinical isolate LRP 154): 1.56 µg/mL (≈ 3.24 µM); Minimum inhibitory concentration (MIC) (Escherichia coli [7]; clinical isolate LRP 155): 1.56 µg/mL (≈ 3.24 µM); Minimum inhibitory concentration (MIC) (Escherichia coli [7]; clinical isolate LRP 156): 1.56 µg/mL (≈ 3.24 µM); Minimum inhibitory concentration (MIC) (Escherichia coli [7]; clinical isolate LRP 158): 1.56 µg/mL (≈ 3.24 µM); Minimum inhibitory concentration (MIC) (Escherichia coli [7]; clinical isolate LRP 163): 1.56 µg/mL (≈ 3.24 µM); MIC (Salmonella essen): 1.56 µg/mL (≈ 3.24 µM); MIC (Salmonella wien; read-out: Minimun inhibitory concentration (MIC), Ampicillin-resistant clinical isolate LRP 138): 3.12 µg/mL (≈ 6.48 µM); MIC (Salmonella wien; read-out: Minimun inhibitory concentration (MIC), Ampicillin-resistant clinical isolate LRP 140): 6.25 µg/mL (≈ 13 µM); MIC (Salmonella wien; read-out: Minimun inhibitory concentration (MIC), Ampicillin-resistant clinical isolate LRP 141): 6.25 µg/mL (≈ 13 µM)
